Results as given in ChEMBL document CHEMBL5321235, “Design, synthesis, and SAR study of novel flavone 1,2,4-oxadiazole derivatives with anti-inflammatory activities for the treatment of Parkinson's disease” (Eur J Med Chem, 2023).
The source made the active and inactive calls. The rule behind the calls is not given here.

Key:
[1] = system: BV-2; test: Antiinflammatory activity in mouse BV-2 cells assessed as inhibition of LPS-induced NO production at 5 uM pretreated for 18 hrs followed by LPS-induction and measured after 6 hrs relative to control; type: functional; design: scale not given: the % may be the effect or the level left; conditions: time 24 hrs
[2] = system: BV-2; test: Inhibition of LPS-induced ROS production in mouse BV-2 cells at 5 uM pretreated for 18 hrs followed by LPS-stimulation and measured after 6 hrs by fluorescence microscopic analysis; type: functional, cell-based; conditions: time 24.0 hrs
[3] = system: Microglia; test: Neuroprotective activity against MPTP-induced apoptosis in mouse microglia assessed as reduction in apoptotic cells in brain tissue at 15 mg/kg, ip administered with compound once daily for 2 weeks followed by MPTP addition on day 8 and measured after 2 weeks of compound addition by TUNEL staining based immunofluorescence analysis; type: functional, organism-based
[4] = system: BV-2; test: Cytotoxicity against mouse BV-2 cells assessed as reduction in cell viability at 5 uM pretreated for 18 hrs followed by LPS-stimulation and measured after 6 hrs by MTT assay; type: toxicity, cell-based; conditions: bv-2, 24 h

Row | Structure (SMILES) | Activity [1] [%] | inhibition [2] | Activity [3] | Activity [4]
1 | Cc1c(-c2ccccc2)oc2c(-c3nc(-c4ccccc4Br)no3)cccc2c1=O | 41.6 | Active |  | 
2 | CCc1ccc(-c2noc(-c3cccc4c(=O)c(C)c(-c5ccccc5)oc34)n2)cc1 | 41.6 | Active |  | 
3 | COc1ccccc1-c1noc(-c2cccc3c(=O)c(C)c(-c4ccccc4)oc23)n1 | 41.6 | inactive |  | 
4 | C#CCN[C@@H]1CCc2ccccc21 |  | Active | Active | 
5 | Cc1c(-c2ccccc2)oc2c(-c3nc(-c4cccc(F)c4)no3)cccc2c1=O | 22.4 | Active |  | 
6 | COc1ccc(-c2coc3cc(O)cc(O)c3c2=O)cc1 |  | Active |  | 
7 | Cc1c(-c2ccccc2)oc2c(-c3nc(-c4ccsc4)no3)cccc2c1=O |  | Active |  | 
8 | Cc1c(-c2ccccc2)oc2c(-c3nc(-c4ccc(Br)cc4)no3)cccc2c1=O | 41.6 | Active |  | Non-Toxic
9 | Cc1ccc(-c2noc(-c3ccc(F)c(F)c3)n2)cn1 |  | Active |  | 
